System: LPS induced IL-6 secretion from whole blood
Test: Measurement of LPS Induced IL-6 Secretion from Whole Blood
Type: cell-based
Conditions: IL-6 in whole blood, LPS 200 ng/ml, 24 hours
Procedure: Activation of monocytic cells by agonists of toll-like receptors such as bacterial lipopolysaccharide (LPS) results in production of key inflammatory mediators including IL-6. Such pathways are widely considered to be central to the pathophysiology of a range of auto-immune and inflammatory disorders.
Compounds to be tested are diluted to give a range of appropriate concentrations of which 1 μl of the diluted stocks is added to a 96 well plate. Following addition of whole blood (130 μl) the plates are incubated at 37 degrees (5% CO2) for 30 min before the addition of 10 μl of 2.8 ug/ml LPS, diluted in complete RPMI 1640 (final concentration=200 ng/ml), to give a total volume of 140 ul per well. After further incubation for 24 hours at 37 degrees, 140 μl of PBS are added to each well. The plates are sealed, shaken for 10 minutes and then centrifuged (2500 rpm×10 min). 100 μl of the supernatant are removed and IL-6 levels assayed by immunoassay (typically by MesoScale Discovery technology) either immediately or following storage at −20 degrees. Concentration response curves for each compound was generated from the data and an IC50 value was calculated

Row | SMILES | IC50 [µM]
1 | COc1cc2c(cc1-c1c(C)noc1C)ncc1nc(NCCO)n(CC3CCOCC3)c12 [Example 2, 2-{[7-(3,5-dimethyl-4-isoxazolyl)-8-(methyloxy)-1-(tetrahydro-2H-pyran-4-ylmethyl)-1H-imidazo[4,5-c]quinolin-2-yl]amino}ethanol] | > 3.16
2 | COc1cc2c(cc1-c1c(C)noc1C)ncc1nc(NCCN)n(CC3CCOCC3)c12 [Example 8, N1-(7-(3,5-dimethylisoxazol-4-yl)-8-methoxy-1-((tetrahydro-2H-pyran-4-yl)methyl)-1H-imidazo[4,5-c]quinolin-2-yl)ethane-1,2-diamine] | > 3.16

— patent US8846709B2, “7-(3,5-dimethyl-4-isoxazolyl)-8-(methyloxy)-1H-imidazo[4,5-C]quinoline derivatives” (GlaxoSmithKline LLC, priority 2011, dated 2014)
